Assay [1] addresses T1, SARS-CoV-2 PLpro (nsp3 1564–1878) (Severe acute respiratory syndrome coronavirus 2, UniProt P0DTD1). Description: biochemical. The following applies: high concentration screen, read-out: % of control remaining. On the set-up: FRET-quenched peptide (Pro3) cleavage by PLpro, 10 min pre-incubation, slope over 20 min, normalised to no-compound control.
In assay [2] the target is T1, SARS-CoV-2 PLpro (nsp3 1564–1878). Description: biochemical. The settings on record: low concentration screen, read-out: % of control remaining. Details: FRET-quenched peptide (Pro3) cleavage by PLpro, 10 min pre-incubation, slope over 20 min, normalised to no-compound control.

Where a name gives a salt, the structure may show the parent alone. Read-outs that look alike come from different tables or passages of the source.

Regarding `CC(C)(C)C(O)/C(=C\c1ccc(Cl)cc1)n1cncn1` (centres unmarked) [Uniconazole], in assay [1] (Well no.=8248), the remaining activity at 3.75 µM worked out at 102%. Moreover, the remaining activity at 1.25 µM in assay [2] (Well no.=8248) came out at 104%.
Regarding `O=c1cc[nH]c(=O)[nH]1` [Uracil], the remaining activity at 3.75 µM in assay [1] (Well no.=7023) was 102%. Also, the remaining activity at 1.25 µM in assay [2] (Well no.=7023) is 103%.
Take `COc1ccccc1N1CCN(CCCNc2cc(=O)n(C)c(=O)n2C)CC1` [Urapidil hydrochloride]: the remaining activity at 3.75 µM in assay [1] (Well no.=1476) was determined as 97.2%. Further, the remaining activity at 1.25 µM in assay [2] (Well no.=1476) came to 98.2%.
`O=c1ccn([C@@H]2O[C@H](CO)[C@@H](O)[C@H]2O)c(=O)[nH]1` [Uridin]: the remaining activity at 3.75 µM in assay [1] (Well no.=6399) is 106%; in assay [1] (Well no.=8849) it was 94.8%. Further, in assay [2] (Well no.=8849), the remaining activity at 1.25 µM worked out at 101%.
For `O=c1ccn([C@@H]2O[C@H](COP(=O)(O)OP(=O)(O)O)[C@@H](O)[C@H]2O)c(=O)[nH]1` [Uridine 5'-diphosphate sodium], the remaining activity at 3.75 µM in assay [1] (Well no.=1188) is 104%. Further, the remaining activity at 1.25 µM in assay [2] (Well no.=1188) was 104%.
With `O=c1ccn([C@@H]2O[C@H](COP(=O)(O)O)[C@@H](O)[C@H]2O)c(=O)[nH]1` [Uridine 5'-monophosphate disodium salt], in assay [1] (Well no.=8935), the remaining activity at 3.75 µM came to 97.2%. In addition, the remaining activity at 1.25 µM in assay [2] (Well no.=8935) amounted to 112%.
Turning to `O=c1ccn([C@@H]2O[C@H](COP(=O)(O)O)[C@@H](O)[C@H]2O)c(=O)[nH]1` [Uridine 5'-monophosphate], the results for the remaining activity at 3.75 µM in assay [1] (Well no.=7495) and in assay [1] (Well no.=8889) were 103% and 99%, respectively. Besides, the remaining activity at 1.25 µM came out at 103% in assay [2] (Well no.=7495) and 101% in assay [2] (Well no.=8889).
With `CC(=O)OC[C@H]1O[C@@H](n2ccc(=O)[nH]c2=O)[C@H](OC(C)=O)[C@@H]1OC(C)=O` [Uridine triacetate], the remaining activity at 3.75 µM in assay [1] (Well no.=7996) was determined as 94.1%. In addition, in assay [2] (Well no.=7996), the remaining activity at 1.25 µM worked out at 92.7%.
On to `O=c1ccn([C@@H]2O[C@H](COP(=O)(O)OP(=O)(O)OP(=O)(O)O)[C@@H](O)[C@H]2O)c(=O)[nH]1` [Uridine triphosphate (trisodium salt)], for which, in assay [1] (Well no.=7810), the remaining activity at 3.75 µM stood at 105%. Besides, the remaining activity at 1.25 µM in assay [2] (Well no.=7810) was 105%.
For `O=c1ccn([C@@H]2O[C@H](COP(=O)(O)OP(=O)(O)OP(=O)(O)O)[C@@H](O)[C@H]2O)c(=O)[nH]1` [Uridine triphosphate], in assay [1] (Well no.=8933), the remaining activity at 3.75 µM was found to be 97.6%. Moreover, the remaining activity at 1.25 µM in assay [2] (Well no.=8933) was determined as 95.1%.
As for `O=c1ccn([C@@H]2O[C@H](COP(=O)(O)OP(=O)(O)O)[C@@H](O)[C@H]2O)c(=O)[nH]1` [Uridine-5'-diphosphate disodium salt], the remaining activity at 3.75 µM in assay [1] (Well no.=7718) worked out at 97.7%. Further, the remaining activity at 1.25 µM in assay [2] (Well no.=7718) was found to be 96.1%.
In the case of `O=c1ccn([C@@H]2O[C@H](CO)[C@@H](O)[C@H]2O)c(=O)[nH]1` [Uridine], in assay [1] (Well no.=4716), the remaining activity at 3.75 µM is 104%. In assay [2] (Well no.=4716), the remaining activity at 1.25 µM stood at 103%.
Turning to `C[C@H]1[C@H](C)CC[C@]2(C(=O)O)CC[C@]3(C)C(=CC[C@@H]4[C@@]5(C)CC[C@H](O)C(C)(C)[C@@H]5CC[C@]43C)[C@H]12` [Ursolic acid], in assay [1] (Well no.=3585), the remaining activity at 3.75 µM stood at 113%. The remaining activity at 1.25 µM in assay [2] (Well no.=3585) turned out to be 107%.
For the molecule `C[C@H]1[C@H](C)CC[C@]2(C(=O)O)CC[C@]3(C)C(=CC[C@@H]4[C@@]5(C)CCC(=O)C(C)(C)[C@@H]5CC[C@]43C)[C@H]12` [Ursonic acid], the remaining activity at 3.75 µM in assay [1] (Well no.=6448) is 98.4%. Also, in assay [2] (Well no.=6448), the remaining activity at 1.25 µM worked out at 98.3%.
On to `CS(=O)(=O)c1ccc(-c2cnc(N)c(C(=O)Nc3ccccc3)n2)cc1` [VE-821], for which the remaining activity at 3.75 µM in assay [1] (Well no.=4790) was 96.4%. Besides, the remaining activity at 1.25 µM in assay [2] (Well no.=4790) came out at 97.8%.
For the molecule `O=C1Nc2ccc(Br)cc2/C1=C/c1cc2c([nH]1)CCCC2` [VEGF Receptor 2 Kinase Inhibitor II], the remaining activity at 3.75 µM in assay [1] (Well no.=2651) was 87.8%. Besides, the remaining activity at 1.25 µM in assay [2] (Well no.=2651) was 86%.
In the case of `COc1ccc(-c2cnc3c(-c4ccsc4)cnn3c2)cc1` [VEGF Receptor 2 Kinase Inhibitor IV], in assay [1] (Well no.=2655), the remaining activity at 3.75 µM is 97%. Also, the remaining activity at 1.25 µM in assay [2] (Well no.=2655) came to 95.2%.
In the case of `CCOC(=O)c1c(C)[nH]c(/C=C2\C(=O)Nc3ccccc32)c1C` [VEGF Receptor 2 Kinase Inhibitor I], the remaining activity at 3.75 µM in assay [1] (Well no.=2645) came to 102%. Moreover, the remaining activity at 1.25 µM in assay [2] (Well no.=2645) is 97.1%.
Turning to `N#Cc1ccc(COC[C@H]2O[C@@H](n3c(NCc4ccc(Cl)c(Cl)c4)nc4c(N)ncnc43)[C@H](O)[C@@H]2O)cc1` [VER155008], the remaining activity at 3.75 µM in assay [1] (Well no.=8816) was 89.6%. The remaining activity at 1.25 µM in assay [2] (Well no.=8816) amounted to 89.7%.
`CCNC(=O)c1[nH]nc(-c2cc(Cl)c(O)cc2O)c1-c1ccc(OC)cc1` [VER-49009]: the remaining activity at 3.75 µM in assay [1] (Well no.=8622) is 100%. In addition, the remaining activity at 1.25 µM in assay [2] (Well no.=8622) was 100%.
Take `CCNC(=O)c1noc(-c2cc(Cl)c(O)cc2O)c1-c1ccc(OC)cc1` [VER-50589]: in assay [1] (Well no.=8670), the remaining activity at 3.75 µM is 97.5%. Moreover, the remaining activity at 1.25 µM in assay [2] (Well no.=8670) came out at 95.3%.
As for `C=CC(=O)N1CC/C(=C\c2ccc(F)c([N+](=O)[O-])c2)C(=O)/C(=C/c2ccc(F)c([N+](=O)[O-])c2)C1` [VLX1570], the remaining activity at 3.75 µM in assay [1] (Well no.=7794) worked out at 95.4%. Besides, the remaining activity at 1.25 µM in assay [2] (Well no.=7794) amounted to 95.6%.
On to `COc1ccc(CNC(=O)c2sc3nc(C)cc(C)c3c2N)cc1` [VU0152100], for which the remaining activity at 3.75 µM was 98.2% in assay [1] (Well no.=5931) and 88.9% in assay [1] (Well no.=7293). Besides, the remaining activity at 1.25 µM in assay [2] (Well no.=5931) was found to be 95.9%; in assay [2] (Well no.=7293) it was 91.9%.
On to `CCOC(=O)N1CCC(NCCNC(=O)c2ccccc2C)CC1` [VU0357017 (hydrochloride)], for which the remaining activity at 3.75 µM in assay [1] (Well no.=6995) worked out at 95.5%. For the same molecule, the remaining activity at 1.25 µM in assay [2] (Well no.=6995) is 97.4%.
As for `COc1cc(NC(=O)c2ccccn2)ccc1Cl` [VU0361737], the remaining activity at 3.75 µM in assay [1] (Well no.=7189) came out at 97.6%. Also, in assay [2] (Well no.=7189), the remaining activity at 1.25 µM amounted to 99.9%.
For the molecule `O=C(Nc1cccc(Cl)c1)c1ccccn1` [VU0364770], in assay [1] (Well no.=7761), the remaining activity at 3.75 µM came to 105%. For the same molecule, the remaining activity at 1.25 µM in assay [2] (Well no.=7761) came to 102%.
As to `Cc1cc(OCCCc2c3n(c4c(-c5c(C)nn(C)c5C)c(Cl)ccc24)[C@H](C)CN(c2cn(C)c4ccc(C(=O)O)cc24)C3=O)cc(C)c1Cl` [VU0661013], in assay [1] (Well no.=7066), the remaining activity at 3.75 µM stood at 98.3%. Also, in assay [2] (Well no.=7066), the remaining activity at 1.25 µM stood at 105%.
`COc1ccc(CN2C(=O)C(=O)c3cc(OC(F)(F)F)ccc32)cc1` [VU 0238429]: the remaining activity at 3.75 µM in assay [1] (Well no.=8702) stood at 93.7%. Further, in assay [2] (Well no.=8702), the remaining activity at 1.25 µM was determined as 97.3%.
Turning to `CCCCOc1ccc(C(=O)Nc2ccc(F)cc2F)cc1` [VU 0357121], the remaining activity at 3.75 µM was found to be 98.8% in assay [1] (Well no.=4932) and 107% in assay [1] (Well no.=7857). In addition, the results for the remaining activity at 1.25 µM in assay [2] (Well no.=4932) and in assay [2] (Well no.=7857) were 99.8% and 105%, respectively.

The values above are taken from article PMC8286840, “Identifying SARS-CoV-2 antiviral compounds by screening for small molecule inhibitors of Nsp3 papain-like protease” (Biochemical Journal, 2021).
